In PubChem BioAssay (NCI):
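Following 48 hours of exposure in 96-well plates, responses at five concentrations were used to interpolate endpoints linearly. The concentration for 50% growth inhibition is given as GI50. TGI: concentration producing complete growth inhibition.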

Key:
Assay in all cases: growth of human tumour cells (NCI), 48 h
MOLT-4 leukemia = test system: MOLT-4 leukemia
SK-OV-3 ovarian = test system: SK-OV-3 ovarian
SR leukemia = test system: SR leukemia
HOP-92 NSCLC = test system: HOP-92 NSCLC
MCF7 breast = test system: MCF7 breast
HOP-62 NSCLC = test system: HOP-62 NSCLC
HT29 colon = test system: HT29 colon
CAKI-1 renal = test system: CAKI-1 renal
IGROV1 ovarian = test system: IGROV1 ovarian
OVCAR-5 ovarian = test system: OVCAR-5 ovarian
LOX IMVI melanoma = test system: LOX IMVI melanoma
NCI-H23 lung = test system: NCI-H23 lung
SW-620 colon = test system: SW-620 colon
SF-268 CNS = test system: SF-268 CNS
K-562 leukemia = test system: K-562 leukemia
OVCAR-3 ovarian = test system: OVCAR-3 ovarian
DU-145 prostate = test system: DU-145 prostate
NCI-H226 lung = test system: NCI-H226 lung
OVCAR-8 ovarian = test system: OVCAR-8 ovarian
SK-MEL-5 melanoma = test system: SK-MEL-5 melanoma
RXF 393 renal = test system: RXF 393 renal
HL-60(TB) leukemia = test system: HL-60(TB) leukemia
UO-31 renal = test system: UO-31 renal
PC-3 prostate = test system: PC-3 prostate
ACHN renal = test system: ACHN renal
SNB-75 CNS = test system: SNB-75 CNS
UACC-257 melanoma = test system: UACC-257 melanoma
SF-295 CNS = test system: SF-295 CNS
SN12C renal = test system: SN12C renal
NCI-H460 lung = test system: NCI-H460 lung
U251 CNS = test system: U251 CNS
786-0 renal = test system: 786-0 renal
CCRF-CEM leukemia = test system: CCRF-CEM leukemia
BT-549 breast = test system: BT-549 breast
HS 578T breast = test system: HS 578T breast
HCC-2998 colon = test system: HCC-2998 colon
UACC-62 melanoma = test system: UACC-62 melanoma
SF-539 CNS = test system: SF-539 CNS
MALME-3M melanoma = test system: MALME-3M melanoma
HCT-15 colon = test system: HCT-15 colon
COLO 205 colon = test system: COLO 205 colon
HCT-116 colon = test system: HCT-116 colon
RPMI-8226 leukemia = test system: RPMI-8226 leukemia
A549 NSCLC = test system: A549 NSCLC
TK-10 renal = test system: TK-10 renal
SK-MEL-2 melanoma = test system: SK-MEL-2 melanoma
A498 renal = test system: A498 renal
SNB-19 CNS = test system: SNB-19 CNS
NCI/ADR-RES ovarian = test system: NCI/ADR-RES ovarian
SK-MEL-28 melanoma = test system: SK-MEL-28 melanoma
KM12 colon = test system: KM12 colon
M14 melanoma = test system: M14 melanoma
MDA-MB-231 breast = test system: MDA-MB-231 breast
T-47D breast = test system: T-47D breast
OVCAR-4 ovarian = test system: OVCAR-4 ovarian
MDA-MB-435 = test system: MDA-MB-435
NCI-H522 lung = test system: NCI-H522 lung

Compound: CC[C@H](CC#N)OC(=O)N[C@@H](C)c1cccc(NC(=O)Nc2ccc(-c3cnco3)c(OC)c2)c1
- GI50 (MOLT-4 leukemia): 0.0403 µM
- TGI (MOLT-4 leukemia): 13.8 µM
- GI50 (SK-OV-3 ovarian): 0.0722 µM
- TGI (SK-OV-3 ovarian): > 63.8 µM
- GI50 (SR leukemia): 0.0289 µM
- TGI (SR leukemia): 4.3 µM
- GI50 (HOP-92 NSCLC): 2.46 µM
- TGI (HOP-92 NSCLC): 44.7 µM
- GI50 (MCF7 breast): 0.0458 µM
- TGI (MCF7 breast): 18.2 µM
- GI50 (HOP-62 NSCLC): 0.0856 µM
- TGI (HOP-62 NSCLC): 36.8 µM
- GI50 (HT29 colon): < 0.0199 µM
- TGI (HT29 colon): 21.7 µM
- GI50 (CAKI-1 renal): 0.0696 µM
- TGI (CAKI-1 renal): 0.396 µM
- GI50 (IGROV1 ovarian): 0.0514 µM
- TGI (IGROV1 ovarian): 24.2 µM
- GI50 (OVCAR-5 ovarian): 0.623 µM
- TGI (OVCAR-5 ovarian): > 84.5 µM
- GI50 (LOX IMVI melanoma): 0.0242 µM
- TGI (LOX IMVI melanoma): 24.8 µM
- GI50 (NCI-H23 lung): 0.16 µM
- TGI (NCI-H23 lung): 43.2 µM
- GI50 (SW-620 colon): 0.0229 µM
- TGI (SW-620 colon): 40.6 µM
- GI50 (SF-268 CNS): 0.074 µM
- TGI (SF-268 CNS): 51.3 µM
- GI50 (K-562 leukemia): 0.0263 µM
- TGI (K-562 leukemia): > 52.6 µM
- GI50 (OVCAR-3 ovarian): 0.0894 µM
- TGI (OVCAR-3 ovarian): 45 µM
- GI50 (DU-145 prostate): 0.0672 µM
- TGI (DU-145 prostate): 39.3 µM
- GI50 (NCI-H226 lung): 2 µM
- TGI (NCI-H226 lung): 38.4 µM
- GI50 (OVCAR-8 ovarian): 0.0612 µM
- TGI (OVCAR-8 ovarian): 23.5 µM
- GI50 (SK-MEL-5 melanoma): 0.18 µM
- TGI (SK-MEL-5 melanoma): 16.4 µM
- GI50 (RXF 393 renal): 0.266 µM
- TGI (RXF 393 renal): > 22.9 µM
- GI50 (HL-60(TB) leukemia): 0.184 µM
- TGI (HL-60(TB) leukemia): 38.5 µM
- GI50 (UO-31 renal): 0.446 µM
- TGI (UO-31 renal): 10.3 µM
- GI50 (PC-3 prostate): 0.0741 µM
- TGI (PC-3 prostate): 31.4 µM
- GI50 (ACHN renal): 0.0872 µM
- TGI (ACHN renal): 45.1 µM
- GI50 (SNB-75 CNS): 0.11 µM
- TGI (SNB-75 CNS): 27.8 µM
- GI50 (UACC-257 melanoma): 0.0922 µM
- TGI (UACC-257 melanoma): 23.1 µM
- GI50 (SF-295 CNS): 0.0532 µM
- TGI (SF-295 CNS): 13 µM
- GI50 (SN12C renal): 0.111 µM
- TGI (SN12C renal): 79.3 µM
- GI50 (NCI-H460 lung): 0.0328 µM
- TGI (NCI-H460 lung): 17.1 µM
- GI50 (U251 CNS): 0.0406 µM
- TGI (U251 CNS): 44.8 µM
- GI50 (786-0 renal): 0.188 µM
- TGI (786-0 renal): > 93 µM
- GI50 (CCRF-CEM leukemia): < 0.023 µM
- TGI (CCRF-CEM leukemia): 35.8 µM
- GI50 (BT-549 breast): 0.238 µM
- TGI (BT-549 breast): 34 µM
- GI50 (HS 578T breast): 1.16 µM
- TGI (HS 578T breast): > 51.6 µM
- GI50 (HCC-2998 colon): 0.142 µM
- TGI (HCC-2998 colon): 51.6 µM
- GI50 (UACC-62 melanoma): 0.141 µM
- TGI (UACC-62 melanoma): 24.5 µM
- GI50 (SF-539 CNS): 0.0386 µM
- TGI (SF-539 CNS): 28 µM
- GI50 (MALME-3M melanoma): 0.161 µM
- TGI (MALME-3M melanoma): 31.2 µM
- GI50 (HCT-15 colon): 0.119 µM
- TGI (HCT-15 colon): > 51.4 µM
- GI50 (COLO 205 colon): 0.0203 µM
- TGI (COLO 205 colon): 18 µM
- GI50 (HCT-116 colon): 0.026 µM
- TGI (HCT-116 colon): > 45.8 µM
- GI50 (RPMI-8226 leukemia): 0.152 µM
- TGI (RPMI-8226 leukemia): 19.4 µM
- GI50 (A549 NSCLC): 0.0336 µM
- TGI (A549 NSCLC): 20.9 µM
- GI50 (TK-10 renal): 0.171 µM
- TGI (TK-10 renal): 28.3 µM
- GI50 (SK-MEL-2 melanoma): 4.05 µM
- TGI (SK-MEL-2 melanoma): 34.8 µM
- GI50 (A498 renal): 0.138 µM
- TGI (A498 renal): 20.8 µM
- GI50 (SNB-19 CNS): 0.125 µM
- TGI (SNB-19 CNS): > 100 µM
- GI50 (NCI/ADR-RES ovarian): 4.87 µM
- TGI (NCI/ADR-RES ovarian): 62.2 µM
- GI50 (SK-MEL-28 melanoma): 0.0505 µM
- TGI (SK-MEL-28 melanoma): 21.8 µM
- GI50 (KM12 colon): 0.0715 µM
- TGI (KM12 colon): 18.1 µM
- GI50 (M14 melanoma): 0.0753 µM
- TGI (M14 melanoma): 30.5 µM
- GI50 (MDA-MB-231 breast): 0.204 µM
- TGI (MDA-MB-231 breast): > 89.5 µM
- GI50 (T-47D breast): 0.165 µM
- TGI (T-47D breast): 21.4 µM
- GI50 (OVCAR-4 ovarian): 14.1 µM
- TGI (OVCAR-4 ovarian): 71.7 µM
- GI50 (MDA-MB-435): 0.0498 µM
- TGI (MDA-MB-435): 29 µM
- GI50 (NCI-H522 lung): 0.0731 µM
- TGI (NCI-H522 lung): 15.1 µM
